# From patent US20210259954A1, “CILIA-TARGETING NANOPARTICLES” (Chapman University, priority 2019, published 2021)
# Legend:
# [1] = tested on: Tie2Cre⋅Pkd2^flox/flox mice; assay: Working heart perfusion system, hearts of treated Pkd2 mice (Example 1); type: in vivo, mouse; conditions: for CO, cardiac output / EDPVR, end-diastolic pressure volume relation / EF, ejection fraction / ESPVR, end-systolic pressure volume relation / HR, heart rate / LV EDP, end-diastolic pressure / LV EDV, end-diastolic volume / LV ESP, end-systolic pressure / LV ESV, end-systolic volume / LV Pmax, systolic pressure / SV, stroke volume / SW, stroke work / dP/dtmax, maximum rate of LV pressure rise / dP/dtmin, maximum rate of LV pressure fall: Pkd2 heart
# Description: One-week-old Tie2Cre⋅Pkd2^WT/WT (with cre activation; control group) or Tie2Cre⋅Pkd2^flox/flox (without cre activation; control group), and Tie2Cre⋅Pkd2^flox/flox (with cre activation; experimental group) mice were injected intra-peritoneally with 5 μg/μL tamoxifen every day for five consecutive days. […] The mice were next injected with PBS (control), CT-DAu-NPs or CT-PLGA-NPs (0.5 to 2.0 mg/kg body weight) via intravenous (IV) injections. […] The mice were treated every 72 hours with different NPs for 8 weeks.
# Working Heart Perfusion System. To study heart function independently from neuronal innervation or humoral effect, ex vivo heart parameters were collected using a mouse working heart system from Emka Technologies. This system collected data of the cardiac contractile strength, electrical heart propagation (ECG; electrocardiogram) and other cardiac functions, including the heart rate (HR), left ventricle pressure (LVP), left ventricular volume (LVV), left atrial pressure (LAP), aortic out flow (AOF), stroke volume (SV), cardiac output (CO), end diastolic/systolic volume (Edv-Esv), rate of left atrial pressure raise (+dp/dt) and fall (−dt/dt), preload, afterload, and main aortic pressure. Heparin (100 units, IP), xylazine (10-15 mg/kg, IP), and ketamine (200-350 mg/kg, IP) were used to prevent blood coagulation in the coronary arteries and to anesthetize the mice. After cannulation, the heart was perfused with Krebs-Ringer superfusion solution (in mM: 125 NaCl, 2.5 KCl, 1.25 NaH2PO4, 2 CaCl2, 1 MgCl2, 25 NHCO3 and 25 glucose). Throughout the experiment, the solution was continuously bubbled with carbogen (95% O2 and 5% CO2) to reach 7.4 pH at 38° C. Stress tests were performed in the heart by perfusing epinephrine (4 μg/L) or diltiazem (0.08 μg/L). The cardiac function was plotted in a loop diagram showing the LVV-LVP relationship (volume-pressure loop).
# [2] = tested on: Tie2Cre⋅IFT88^flox/flox mice; assay: Working heart perfusion system, hearts of treated IFT88 mice; type: in vivo, mouse
# primary cilia = assay: In vitro cilia length, acetylated-α-tubulin immunofluorescence (Example 1); type: cell-based; conditions: after 16 hours, vs corresponding controls
# Description: Immunocytochemistry. For the in vitro cilia length measurements, cells were grown on the Formvar® polymer, as mentioned above. Primary cilia consisting of acetylated microtubule structures were measured by direct immunofluorescence with acetylated-α-tubulin staining with 0, 2, 4, 8, 16, 24 and 32 hours of incubation with different concentrations (0.1-5 μg/mL) of CT-DAu-NPs or CT-PLGA-NPs. Likewise, materials without fenoldopam loading were used as corresponding controls for the CTNDDSs (cCT-DAu-NPs and cCT-PLGA-NPs) and also fenoldopam alone used. The cells were rinsed with sodium cacodylate buffer, fixed with 3% glutaraldehyde in 0.2 M sodium cacodylate buffer for 10 minutes, and permeabilized with 1% Triton-X in sodium cacodylate for 5 min. Acetylated-α-tubulin (1:10,000 dilution, Sigma) and the secondary antibodies were also diluted in 10% FBS to decrease the background florescence; FITC fluorescence secondary antibody (1:1000; Pierce, Inc.) was used. The cells were then washed three times for 5 minutes each with cacodylate buffer and mounted with DAPI (Vector laboratories). Confocal microscopic images were obtained using an inverted Nikon Eclipse Ti confocal microscope.
# LLC-PK1 cells = assay: Intracellular and ciliary Ca2+ and NO imaging under flow or magnetic field (Example 2); type: cell-based, porcine; conditions: 5HT6-mCherry-G-GECO1.0, single cell single cilium
# Description: Cells were grown as monolayer on glass-bottomed plates to enable live microscopy imaging. […] For intracellular NO measurements, cells were loaded with 20 μM DAF-FM (Cayman Chemical) for 30 minutes at 37° C. […] Fluid shear stress was then applied to cells through […] peristaltic pumps with an inlet and outlet setup. The fluid was perfused through cell monolayers at a sub-minimal shear stress of 0.5 dyn/cm^2. […] An alnico cylindrical magnet (VWR International, PA) was used to oscillate a primary cilium. This 100-gram AlNiCo magnet produced a permanent magnetic field of 1.35 T. Once a cilium was placed on the specimen holder and in the plane of view, the magnet was mounted on the top of an inverted Nikon Ti-E microscope. The magnet was then mechanically moved with an oscillation frequency of 1.6 Hz. The movement of cilia by the magnetic field was continuously recorded for the duration of the experiment. To examine how much force the magnetic field generated onto a cilium, we calculated the movement of cilia in response to the oscillating magnetic field (Supplement). […] The shear stress ranged from 0.01 to 1.0 dyn/cm^2 and was accurately measured and controlled at all times. […] Approximately 15-20 cilia were analysed for each treatment using different fluorescence filters. […] The GFP/mCherry ratios were also calculated using Nikon tracking software.
smiles,measurement,setting,value
"Oc1ccc(C2CNCCc3c2cc(O)c(O)c3Cl)cc1 (stereo not shown) [Fenoldopam, fenoldopam]","CO, cardiac output",[1]; diltiazem stress,1873 ± 70 µL/min
same,"EDPVR, end-diastolic pressure volume relation",[1]; diltiazem stress,0.14 ± 0.01 mmHg/μL
same,"EF, ejection fraction",[1]; diltiazem stress,51.6 ± 1.4%
same,"ESPVR, end-systolic pressure volume relation",[1]; diltiazem stress,2.3 ± 0.1 mmHg/μL
same,"HR, heart rate",[1]; diltiazem stress,98 ± 9 beat/min
same,"LV EDP, end-diastolic pressure",[1]; diltiazem stress,5.7 ± 0.2 mmHg
same,"LV EDV, end-diastolic volume",[1]; diltiazem stress,40.3 ± 0.8 µL
same,"LV ESP, end-systolic pressure",[1]; diltiazem stress,33.5 ± 0.5 mmHg
same,"LV ESV, end-systolic volume",[1]; diltiazem stress,19.5 ± 0.6 µL
same,"LV Pmax, systolic pressure",[1]; diltiazem stress,44.7 ± 0.7 mmHg
same,"SV, stroke volume",[1]; diltiazem stress,20.8 ± 0.8 µL
same,"SW, stroke work",[1]; diltiazem stress,812 ± 29 mmHg · μL
same,"dP/dtmax, maximum rate of LV pressure rise",[1]; diltiazem stress,4020 ± 643 mmHg/s
same,"dP/dtmin, maximum rate of LV pressure fall",[1]; diltiazem stress,−1537 ± 97 mmHg/s
same,"CO, cardiac output",[1]; epinephrine stress,6810 ± 347 µL/min
same,"EDPVR, end-diastolic pressure volume relation",[1]; epinephrine stress,0.16 ± 0.01 mmHg/μL
same,"EF, ejection fraction",[1]; epinephrine stress,77.7 ± 2.0%
same,"ESPVR, end-systolic pressure volume relation",[1]; epinephrine stress,9.7 ± 0.9 mmHg/μL
same,"HR, heart rate",[1]; epinephrine stress,219 ± 44 beat/min
same,"LV EDP, end-diastolic pressure",[1]; epinephrine stress,6.4 ± 0.5 mmHg
same,"LV EDV, end-diastolic volume",[1]; epinephrine stress,39.9 ± 0.1 µL
same,"LV ESP, end-systolic pressure",[1]; epinephrine stress,63.2 ± 0.3 mmHg
same,"LV ESV, end-systolic volume",[1]; epinephrine stress,8.9 ± 0.8 µL
same,"LV Pmax, systolic pressure",[1]; epinephrine stress,84.3 ± 0.4 mmHg
same,"SV, stroke volume",[1]; epinephrine stress,31.1 ± 0.7 µL
same,"SW, stroke work",[1]; epinephrine stress,2417 ± 28 mmHg · μL
same,"dP/dtmax, maximum rate of LV pressure rise",[1]; epinephrine stress,16864 ± 85 mmHg/s
same,"dP/dtmin, maximum rate of LV pressure fall",[1]; epinephrine stress,−3843 ± 277 mmHg/s
same,"CO, cardiac output",[1]; vehicle,3486 ± 81 µL/min
same,"EDPVR, end-diastolic pressure volume relation",[1]; vehicle,0.13 ± 0.01 mmHg/μL
same,"EF, ejection fraction",[1]; vehicle,62.5 ± 0.2%
same,"ESPVR, end-systolic pressure volume relation",[1]; vehicle,4.4 ± 0.1 mmHg/μL
same,"HR, heart rate",[1]; vehicle,140 ± 24 beat/min
same,"LV EDP, end-diastolic pressure",[1]; vehicle,5.0 ± 0.1 mmHg
same,"LV EDV, end-diastolic volume",[1]; vehicle,40.0 ± 0.1 µL
same,"LV ESP, end-systolic pressure",[1]; vehicle,49.7 ± 1.5 mmHg
same,"LV ESV, end-systolic volume",[1]; vehicle,15.0 ± 0.1 µL
same,"LV Pmax, systolic pressure",[1]; vehicle,66.3 ± 2.0 mmHg
same,"SV, stroke volume",[1]; vehicle,24.9 ± 0.1 µL
same,"SW, stroke work",[1]; vehicle,1530 ± 20 mmHg · μL
same,"dP/dtmax, maximum rate of LV pressure rise",[1]; vehicle,7157 ± 211 mmHg/s
same,"dP/dtmin, maximum rate of LV pressure fall",[1]; vehicle,−1624 ± 24 mmHg/s
same,LVP/LVV abnormalities (P-V loops),[1]; Pkd2 hearts,Both CTNDDS but not fenoldopam-alone corrected these abnormalities
same,arrhythmia (ECG),"[1]; Pkd2 hearts, 8-week treatment",could be corrected with 8-week treatment of CTNDDS but not fenoldopam-alone
same,"CO, cardiac output",[2]; diltiazem stress,1857 ± 137 µL/min
same,"EDPVR, end-diastolic pressure volume relation",[2]; diltiazem stress,0.13 ± 0.01 mmHg/μL
same,"EF, ejection fraction",[2]; diltiazem stress,51.6 ± 1.7%
same,"ESPVR, end-systolic pressure volume relation",[2]; diltiazem stress,2.1 ± 0.1 mmHg/μL
same,"HR, heart rate",[2]; diltiazem stress,104 ± 20 beat/min
same,"LV EDP, end-diastolic pressure",[2]; diltiazem stress,5.1 ± 0.1 mmHg
same,"LV EDV, end-diastolic volume",[2]; diltiazem stress,40.0 ± 0.1 µL
same,"LV ESP, end-systolic pressure",[2]; diltiazem stress,30.2 ± 0.1 mmHg
same,"LV ESV, end-systolic volume",[2]; diltiazem stress,19.4 ± 0.7 µL
same,"LV Pmax, systolic pressure",[2]; diltiazem stress,40.2 ± 0.1 mmHg
same,"SV, stroke volume",[2]; diltiazem stress,20.6 ± 0.7 µL
same,"SW, stroke work",[2]; diltiazem stress,725 ± 20 mmHg · μL
same,"dP/dtmax, maximum rate of LV pressure rise",[2]; diltiazem stress,3619 ± 111 mmHg/s
same,"dP/dtmin, maximum rate of LV pressure fall",[2]; diltiazem stress,−1372 ± 330 mmHg/s
same,"CO, cardiac output",[2]; epinephrine stress,7590 ± 176 µL/min
same,"EDPVR, end-diastolic pressure volume relation",[2]; epinephrine stress,0.13 ± 0.01 mmHg/μL
same,"EF, ejection fraction",[2]; epinephrine stress,78.2 ± 2.2%
same,"ESPVR, end-systolic pressure volume relation",[2]; epinephrine stress,10.0 ± 1.1 mmHg/μL
same,"HR, heart rate",[2]; epinephrine stress,241 ± 22 beat/min
same,"LV EDP, end-diastolic pressure",[2]; epinephrine stress,5.3 ± 0.2 mmHg
same,"LV EDV, end-diastolic volume",[2]; epinephrine stress,40.2 ± 0.1 µL
same,"LV ESP, end-systolic pressure",[2]; epinephrine stress,64.5 ± 0.2 mmHg
same,"LV ESV, end-systolic volume",[2]; epinephrine stress,8.7 ± 0.9 µL
same,"LV Pmax, systolic pressure",[2]; epinephrine stress,56.0 ± 0.3 mmHg
same,"SV, stroke volume",[2]; epinephrine stress,31.4 ± 0.8 µL
same,"SW, stroke work",[2]; epinephrine stress,2538 ± 16 mmHg · μL
same,"dP/dtmax, maximum rate of LV pressure rise",[2]; epinephrine stress,17206 ± 578 mmHg/s
same,"dP/dtmin, maximum rate of LV pressure fall",[2]; epinephrine stress,-3180 ± 120 mmHg/s
same,"CO, cardiac output",[2]; vehicle,3780 ± 437 µL/min
same,"EDPVR, end-diastolic pressure volume relation",[2]; vehicle,0.13 ± 0.01 mmHg/μL
same,"EF, ejection fraction",[2]; vehicle,65.5 ± 3.5%
same,"ESPVR, end-systolic pressure volume relation",[2]; vehicle,5.4 ± 0.7 mmHg/μL
same,"HR, heart rate",[2]; vehicle,144 ± 32 beat/min
same,"LV EDP, end-diastolic pressure",[2]; vehicle,5.1 ± 0.1 mmHg
same,"LV EDV, end-diastolic volume",[2]; vehicle,40.1 ± 0.1 µL
same,"LV ESP, end-systolic pressure",[2]; vehicle,54.3 ± 1.0 mmHg
same,"LV ESV, end-systolic volume",[2]; vehicle,13.8 ± 1.4 µL
same,"LV Pmax, systolic pressure",[2]; vehicle,72.4 ± 1.3 mmHg
same,"SV, stroke volume",[2]; vehicle,26.3 ± 1.4 µL
same,"SW, stroke work",[2]; vehicle,1767 ± 56 mmHg · μL
same,"dP/dtmax, maximum rate of LV pressure rise",[2]; vehicle,7819 ± 140 mmHg/s
same,"dP/dtmin, maximum rate of LV pressure fall",[2]; vehicle,−1658 ± 190 mmHg/s
same,cilia length,primary cilia,significantly increased cilia length
same,intraciliary and cytosolic Ca^2+ signalling,LLC-PK1 cells,induced less of an increase in the intraciliary Ca^2+ signalling
